The text below walks through data of PMC5491906, “Cellular uptake and anti-tumor activity of gemcitabine conjugated with new amphiphilic cell penetrating peptides” (EXCLI Journal, 2017).

Data set [1] concerns A549 cells. Kind of data set: Antitumor activity of free gemcitabine and Gem-CPP conjugates by MTT test. The conditions noted are these: for cell viability: 72 h incubation, 10 % FBS; for cell viability / cytotoxicity in comparison to the free drug: 72 h, 15 and 25 µM where stated. How it is done: (§1) A549 lung carcinoma cell line was obtained from the Pasteur Institute (Iran). Cells were maintained in RPMI 1640 medium supplemented with 10 % FBS, 100 units/ml penicillin, and 100 μg/ml streptomycin and grown at 37 °C in a 5 % CO2 humidified atmosphere.
(§2) A549 cells were seeded into 96-well plates at a density of 1.5 × 10^4 cells/well and pre-incubated for 24 h. The next day, different concentrations of peptides were added to the culture medium. Cells were incubated at 37 °C for 72 h. The medium was removed and the wells were washed with PBS. The MTT assay was performed by introducing 50 μl of 2 mg/ml MTT to each well for 4 h. The culture media aspirated and then resulting formazan crystals were dissolved in DMSO and the absorbance of individual wells was obtained at 570 nm. Untreated cells were defined as 100 % viable.
The antitumor activity of free gemcitabine and its conjugates with CPPs (Gem-CPP) was investigated using MTT test after incubation for 72 h. The activity of drug-peptide conjugates i.e. Gem-R5W3R4, Gem-[RW]6, Gem-[RW]5, Gem-[RW]4 and Gem-[WR]3, was evaluated and compared with that of the free drug (Figure 6(Fig. 6)).
Figure 6 Toxicity of Gem-R5W3R4 (A), Gem-[RW]6 (B), Gem-[RW5] (C), Gem-[RW]4 (D), Gem-[RW]3 (E) and Gem to A549 cells. The cells were incubated for 3 days in 10 % FBS with or without peptides and analyzed for proliferation by MTT assay.
Background: Tetrazolium dyes change colour on reduction, which living cells bring about.

The subject of data set [2] is A549 cells. Kind of data set: Fluorescent microscopy of uptake and intracellular localization of FITC-labeled peptides. Format: cell-based. To be noted: FITC-labeled peptide, 25 µM, 1.5 h at 37 °C, live A549 cells, fluorescence read-out. How it is done: The cellular uptake of the FITC-labeled peptide was examined in A549 cell line. A549 cells were seeded with RPMI 1640 medium on coverslips in 6-well plates and allowed to adhere overnight. Then the medium was removed and washed with PBS. The cells were treated with FITC-labeled peptide for 1.5 h at 37 °C. After incubation, the media containing the compound were removed and the cells were washed with PBS three times. Coverslips were placed on a microscope slide (Olympus IX81 fluorescence microscope, Olympus Optical Co., Ltd., Tokyo, Japan).
The uptake and intracellular localization of FITC-labeled peptides were examined by fluorescent microscopy. […] The uptake of all peptides was examined at the concentration of 25 µM.
Figure 4 Fluorescence microscopy, visualization of FITC-labeled, R5W3R4 (A, B), [RW]6 (C, D), [RW]5 (E, F), [RW]4 (G, H), and [RW]3 (I, J) in A459 cells. The top photos show fluorescence microscopy and the bottom bright field of A459 cells. Live cells were treated with 25 µm of peptides for 1.5 h at 37 °C. Control cells were incubated in RPMI medium without the peptides.

The test system of data set [3] is A549 cells. Briefly: Cytotoxicity of blank CPPs by MTT assay. To be noted: 72 h peptide exposure. How it is done: as §1, §2
Data set [4] has as its system A549 cells. Kind of data set: Flow cytometry of cellular uptake of FITC-labeled peptides. Format: cell-based. To be noted: FITC-labeled peptide, 1.5 h at 37 °C, trypsin treatment to remove surface-bound peptide, FACSCalibur. The method, then: A549 cells were seeded with RMPI 1640 medium in 6-well plates (3×10^5 cells/well) 24 h prior to the experiment. After 24 h, the medium was removed and washed with PBS. Then FITC-labeled peptide was added to the cells. The plates were incubated for 1.5 h at 37 °C. After that, the medium containing the peptide was removed. The cells were washed three times with PBS and detached with 0.25 % trypsin/EDTA (0.53 mM) for 5 min. To each well, 2 ml of the medium was added and centrifuged for 4 min. Cells were washed twice with PBS and finally were re-suspended in flow cytometry buffer and analyzed by FACSCalibur (Becton Dickinson, San Jose, CA, USA).
Flow cytometry was used to determine the relative amounts of internalized peptide after 1.5 h incubation at 37 °C. After the incubation, cells were treated with trypsin to remove the cell surface-bound peptides. […] The percentage of cell fluorescence was increased with increasing peptides concentration. This effect was nearly linear for the tested concentrations. There was an increase in fluorescence intensity of cells treated with peptides of higher amino acid content.
Figure 5 Cellular uptake of FITC-labeled peptides in live A549 cells after incubation. The uptake was measured as the relative fraction of positive cells (%) from flow cytometry analysis of all living cells positive for the fluorophore.
A general note: Flow cytometry measures light scatter and fluorescence of single cells or particles in a stream.

Where a SMILES comes first, the peptide text is derived from it. Where no end group is shown, it is not given here. The star is where a group is joined. X1 = Nc1ccn([C@@H]2O[C@H](COC(=O)CCC(=O)*)[C@@H](O)C2(F)F)c(=O)n1

Take `Nc1ccn([C@@H]2O[C@H](CO)[C@@H](O)C2(F)F)c(=O)n1` [Free drug, Gemcitabine]: the cell viability in data set [1] (15 µM) and in data set [1] (25 µM) was 20% each time.

`N=C(N)NCCC[C@H](NC(=O)[C@H](CCCNC(=N)N)NC(=O)[C@H](CCCNC(=N)N)NC(=O)[C@H](CCCNC(=N)N)NC(=O)[C@H](Cc1c[nH]c2ccccc12)NC(=O)[C@H](Cc1c[nH]c2ccccc12)NC(=O)[C@H](Cc1c[nH]c2ccccc12)NC(=O)[C@H](CCCNC(=N)N)NC(=O)[C@H](CCCNC(=N)N)NC(=O)[C@H](CCCNC(=N)N)NC(=O)[C@H](CCCNC(=N)N)NC(=O)[C@H](CCCNC(=N)N)NC(=O)CCC(=O)OC[C@H]1O[C@@H](n2ccc(N)nc2=O)C(F)(F)[C@@H]1O)C(N)=O` [Gem-R5W3R4] (X1-RRRRRWWWRRRR-NH2): the “cell viability / cytotoxicity in comparison to the free drug” value in data set [1] was “decreased cell viability”.

In the case of `N=C(N)NCCC[C@H](NC(=O)CCC(=O)OC[C@H]1O[C@@H](n2ccc(N)nc2=O)C(F)(F)[C@@H]1O)C(=O)N[C@@H](Cc1c[nH]c2ccccc12)C(=O)N[C@@H](CCCNC(=N)N)C(=O)N[C@@H](Cc1c[nH]c2ccccc12)C(=O)N[C@@H](CCCNC(=N)N)C(=O)N[C@@H](Cc1c[nH]c2ccccc12)C(=O)N[C@@H](CCCNC(=N)N)C(=O)N[C@@H](Cc1c[nH]c2ccccc12)C(=O)N[C@@H](CCCNC(=N)N)C(=O)N[C@@H](Cc1c[nH]c2ccccc12)C(=O)N[C@@H](CCCNC(=N)N)C(=O)N[C@@H](Cc1c[nH]c2ccccc12)C(N)=O` [Gem-[RW]6], in data set [1], the “cell viability / cytotoxicity in comparison to the free drug” value is recorded as “decreased cell viability”.

RRRRRWWWRRRR-NH2 [R5W3R4]: the “intracellular distribution (fluorescent microscopy)” value in data set [2] is reported as “homogeneous staining throughout the intracellular space”. The compound further yielded a cell toxicity value in data set [3] (25 µM) of 9%. Further, the cell death in data set [3] (50 µM) is reported as 28%. In addition, the “intracellular fluorescence, relative fraction of positive cells (flow cytometry)” value in data set [4] is “maximum intracellular fluorescence”.

By cell viability is commonly meant the share of living cells, or the viability signal relative to a control. Read a high cell viability as less harm to the cells.
